Data on 10 compounds can be found in PubChem BioAssay AID256 (DTP/NCI, 2004).

“And” between values parts separate entries of the source, which are not always exact repeats. Identical values can stand only once. Inconclusive results and toxic doses are left out.

In this assay the test system is CD2F1 mice, L1210 leukemia ip, survival T/C. Nature of the assay: NCI In Vivo Anticancer Drug Screen. Data for tumor model L1210 Leukemia (intraperitoneal) in CD2F1 (CDF1) mice. The note with it: higher = longer survival. The method in brief:
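Transplantable tumor in mice; compound-treated vs vehicle-treated groups. Read-out = treated/control ratio of the measured endpoint.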

Setting [1] is: endpoint: mean survival time, dose: 100.0 mg/kg/injection, schedule: Q01DX009 (ip), vehicle: saline with Tween-80.
Where [2] appears, read: endpoint: mean survival time, dose: 200.0 mg/kg/injection, schedule: Q01DX009 (ip), vehicle: saline with Tween-80.
Where [3] appears, read: endpoint: mean survival time, dose: 75.0 mg/kg/injection, schedule: Q01DX001 (ip), vehicle: saline.

Regarding `CC[C@]1(O)C[C@H]2CN(CCc3c([nH]c4ccccc34)[C@@](C(=O)OC)(c3cc4c(cc3OC)N(C)[C@H]3[C@@](O)(C(=O)OC)[C@H](OC(C)=O)[C@]5(CC)C=CCN6CC[C@]43[C@@H]65)C2)C1`, the T/C (endpoint: mean survival time, dose: 0.03 mg/kg/injection, schedule: Q01DX009 (ip), vehicle: water) was 92 % of control; the T/C (endpoint: mean survival time, dose: 0.06 mg/kg/injection, schedule: Q01DX009 (ip), vehicle: water) was 97 % of control; the T/C (endpoint: mean survival time, dose: 0.13 mg/kg/injection, schedule: Q01DX009 (ip), vehicle: water) was 95 % of control; the T/C (endpoint: mean survival time, dose: 0.25 mg/kg/injection, schedule: Q01DX007 (ip), vehicle: water) is 120 % of control; the T/C (endpoint: mean survival time, dose: 0.5 mg/kg/injection, schedule: Q04DX003 (ip), vehicle: water) is 120 % of control; the T/C (endpoint: mean survival time, dose: 1.0 mg/kg/injection, schedule: Q01DX007 (ip), vehicle: water) is 91 % of control. Also, the T/C runs as follows: (endpoint: mean survival time, dose: 1.0 mg/kg/injection, schedule: Q01DX009 (ip), vehicle: saline) 90 % of control and 91 % of control; (endpoint: mean survival time, dose: 1.0 mg/kg/injection, schedule: Q01DX009 (ip), vehicle: water) 86 % of control; (endpoint: mean survival time, dose: 1.0 mg/kg/injection, schedule: Q04DX003 (ip), vehicle: water) 120 % of control; (endpoint: median survival time, dose: 0.83 mg/kg/injection, schedule: Q01DX009 (ip), vehicle: saline) 110 % of control; (endpoint: median survival time, dose: 1000.0 micrograms/kg/injection, schedule: Q01DX009 (ip), vehicle: saline) 98 % of control.
Turning to `Nc1ccc(OCCCc2ccccc2)c([N+](=O)[O-])c1`, the T/C was 92 % of control and 100 % of control (endpoint: mean survival time, dose: 100.0 mg/kg/injection, schedule: Q01DX001 (ip), vehicle: other); 96 % of control and 102 % of control under setting [1]; 98 % of control (endpoint: mean survival time, dose: 100.0 mg/kg/injection, schedule: Q04DX002 (ip), vehicle: other); 98 % of control (endpoint: mean survival time, dose: 100.0 mg/kg/injection, schedule: Q04DX003 (ip), vehicle: other); 93 % of control and 98 % of control (endpoint: mean survival time, dose: 200.0 mg/kg/injection, schedule: Q01DX001 (ip), vehicle: other); 96 % of control and 106 % of control under setting [2]. For the same compound, the T/C is 100 % of control (endpoint: mean survival time, dose: 200.0 mg/kg/injection, schedule: Q04DX002 (ip), vehicle: other); 100 % of control (endpoint: mean survival time, dose: 200.0 mg/kg/injection, schedule: Q04DX003 (ip), vehicle: other); 122 % of control and 93 % of control (endpoint: mean survival time, dose: 400.0 mg/kg/injection, schedule: Q01DX009 (ip), vehicle: saline with Tween-80); 102 % of control (endpoint: mean survival time, dose: 400.0 mg/kg/injection, schedule: Q04DX002 (ip), vehicle: other).
Regarding `CCOC(=O)/C=C\C1CCCCC1`, the T/C reads like this: (endpoint: mean survival time, dose: 50.0 mg/kg/injection, schedule: Q01DX009 (ip), vehicle: saline with Tween-80) 93 % of control; under setting [1], 108 % of control; under setting [2], 104 % of control.
For the compound `CCS(=O)(=O)C(C)S(=O)(=O)CC`, the T/C (endpoint: mean survival time, dose: 100.0 mg/kg/injection, schedule: Q01DX001 (ip), vehicle: saline with Tween-80) is 100 % of control; the T/C (endpoint: mean survival time, dose: 200.0 mg/kg/injection, schedule: Q01DX001 (ip), vehicle: saline with Tween-80) was 107 % of control; the T/C (endpoint: mean survival time, dose: 400.0 mg/kg/injection, schedule: Q01DX001 (ip), vehicle: saline with Tween-80) was 104 % of control.
For `COc1ccc(N=NN(C)C(=O)c2ccccc2)cc1`, the T/C was 107 % of control (endpoint: mean survival time, dose: 50.0 mg/kg/injection, schedule: Q01DX009 (ip), vehicle: Klucel (hydroxypropylcellulose) (HPC)); 117 % of control (endpoint: mean survival time, dose: 100.0 mg/kg/injection, schedule: Q01DX009 (ip), vehicle: Klucel (hydroxypropylcellulose) (HPC)); 161 % of control (endpoint: mean survival time, dose: 400.0 mg/kg/injection, schedule: Q01DX009 (ip), vehicle: Klucel (hydroxypropylcellulose) (HPC)).
As to `CCCCCCCCCCNCCC(=O)O`, the T/C is 97 % of control (endpoint: mean survival time, dose: 37.5 mg/kg/injection, schedule: Q04DX003 (ip), vehicle: saline); 94 % of control (endpoint: mean survival time, dose: 75.0 mg/kg/injection, schedule: Q04DX003 (ip), vehicle: saline); 97 % of control (endpoint: mean survival time, dose: 150.0 mg/kg/injection, schedule: Q04DX003 (ip), vehicle: saline).
As to `O=C(O)CNC(=O)C(CSC(c1ccccc1)(c1ccccc1)c1ccccc1)NC(c1ccccc1)(c1ccccc1)c1ccccc1` (stereo unspecified), the T/C under setting [3] is 97 % of control.
Turning to `Nc1ncnc2c1nc(-c1ccccc1)n2C1OC(CO)C(O)C1O` (stereo unspecified), the T/C by setting is: (endpoint: median survival time, dose: 25.0 mg/kg/injection, schedule: Q01DX005 (ip), vehicle: distilled water + Tween-80) 100 % of control; (endpoint: median survival time, dose: 50.0 mg/kg/injection, schedule: Q01DX005 (ip), vehicle: distilled water + Tween-80) 97 % of control; (endpoint: median survival time, dose: 100.0 mg/kg/injection, schedule: Q01DX005 (ip), vehicle: distilled water + Tween-80) 100 % of control; (endpoint: median survival time, dose: 200.0 mg/kg/injection, schedule: Q01DX005 (ip), vehicle: distilled water + Tween-80) 100 % of control.
Take `O=C1NC(=O)C(Br)C(=O)N1`: the T/C reads like this: under setting [3], 102 % of control; (endpoint: mean survival time, dose: 150.0 mg/kg/injection, schedule: Q01DX001 (ip), vehicle: saline) 100 % of control.
For the compound `c1ccc2c(c1)[As]=c1ccccc1=[As]2` (stereo unspecified), the T/C was 108 % of control (endpoint: median survival time, dose: 1.5 mg/kg/injection, schedule: Q01DX009 (ip), vehicle: saline with Tween-80); 101 % of control (endpoint: median survival time, dose: 3.0 mg/kg/injection, schedule: Q01DX009 (ip), vehicle: saline with Tween-80); 102 % of control and 104 % of control (endpoint: median survival time, dose: 6.0 mg/kg/injection, schedule: Q01DX009 (ip), vehicle: saline with Tween-80); 113 % of control and 109 % of control (endpoint: median survival time, dose: 12.0 mg/kg/injection, schedule: Q01DX009 (ip), vehicle: saline with Tween-80); 106 % of control (endpoint: median survival time, dose: 24.0 mg/kg/injection, schedule: Q01DX009 (ip), vehicle: saline with Tween-80); 100 % of control (endpoint: median survival time, dose: 48.0 mg/kg/injection, schedule: Q01DX009 (ip), vehicle: saline with Tween-80).
